In patent US20160114000A1 (Merck Sharp & Dohme, published 2016):
*1 amine or outer side, *2 acyl side, *3 side chain or, on linkers, in order; H or OH if unused. Where no end group is shown, it is not given here. Side-chain parts run from the residue outwards. [ ]: non-standard residue; d: D form. The star is where a group is joined. γGlu = O=C(O)[C@H](CCC(=O)[*:2])N[*:1]; Palmitoyl = CCCCCCCCCCCCCCCC(=O)*; Ac4c = NC1(C(=O)O)CCC1

B1: Co-agonist Peptide 13 (peptide)
peptide: H[Ac4c]QGTFTSDK([γGlu-γGlu-Palmitoyl])SKYLDERAAQDFVQWLLDT-NH2
modifications: N-terminus assumed
SMILES: CCCCCCCCCCCCCCCC(=O)N[C@@H](CCC(=O)N[C@@H](CCC(=O)NCCCC[C@H](NC(=O)[C@H](CC(=O)O)NC(=O)[C@H](CO)NC(=O)[C@@H](NC(=O)[C@H](Cc1ccccc1)NC(=O)[C@@H](NC(=O)CNC(=O)[C@H](CCC(N)=O)NC(=O)C1(NC(=O)[C@@H](N)Cc2c[nH]cn2)CCC1)[C@@H](C)O)[C@@H](C)O)C(=O)N[C@@H](CO)C(=O)N[C@@H](CCCCN)C(=O)N[C@@H](Cc1ccc(O)cc1)C(=O)N[C@@H](CC(C)C)C(=O)N[C@@H](CC(=O)O)C(=O)N[C@@H](CCC(=O)O)C(=O)N[C@@H](CCCNC(=N)N)C(=O)N[C@@H](C)C(=O)N[C@@H](C)C(=O)N[C@@H](CCC(N)=O)C(=O)N[C@@H](CC(=O)O)C(=O)N[C@@H](Cc1ccccc1)C(=O)N[C@H](C(=O)N[C@@H](CCC(N)=O)C(=O)N[C@@H](Cc1c[nH]c2ccccc12)C(=O)N[C@@H](CC(C)C)C(=O)N[C@@H](CC(C)C)C(=O)N[C@@H](CC(=O)O)C(=O)N[C@H](C(N)=O)[C@@H](C)O)C(C)C)C(=O)O)C(=O)O
B2: Co-agonist Peptide 3 (peptide)
peptide: H[dS]QGTFTSDK([γGlu-γGlu-Palmitoyl])SKYLDVRAAQDFVQWLLDT-NH2
modifications: N-terminus assumed
SMILES: CCCCCCCCCCCCCCCC(=O)N[C@@H](CCC(=O)N[C@@H](CCC(=O)NCCCC[C@H](NC(=O)[C@H](CC(=O)O)NC(=O)[C@H](CO)NC(=O)[C@@H](NC(=O)[C@H](Cc1ccccc1)NC(=O)[C@@H](NC(=O)CNC(=O)[C@H](CCC(N)=O)NC(=O)[C@@H](CO)NC(=O)[C@@H](N)Cc1c[nH]cn1)[C@@H](C)O)[C@@H](C)O)C(=O)N[C@@H](CO)C(=O)N[C@@H](CCCCN)C(=O)N[C@@H](Cc1ccc(O)cc1)C(=O)N[C@@H](CC(C)C)C(=O)N[C@@H](CC(=O)O)C(=O)N[C@H](C(=O)N[C@@H](CCCNC(=N)N)C(=O)N[C@@H](C)C(=O)N[C@@H](C)C(=O)N[C@@H](CCC(N)=O)C(=O)N[C@@H](CC(=O)O)C(=O)N[C@@H](Cc1ccccc1)C(=O)N[C@H](C(=O)N[C@@H](CCC(N)=O)C(=O)N[C@@H](Cc1c[nH]c2ccccc12)C(=O)N[C@@H](CC(C)C)C(=O)N[C@@H](CC(C)C)C(=O)N[C@@H](CC(=O)O)C(=O)N[C@H](C(N)=O)[C@@H](C)O)C(C)C)C(C)C)C(=O)O)C(=O)O

How the values were obtained:
human GCGR = target: T1, human GCGR (Homo sapiens, UniProt P47871); test: cAMP protocol, cells expressing human GCGR; format: cell-based; details: for hGCGR/hGLP1R (hTone): ratio of EC50 at human GCGR to EC50 at human GLP1R
T1 construct: expressed in transfected cells; grown under Geneticin and Hygromycin selection
T1 sequence (P47871 26-477): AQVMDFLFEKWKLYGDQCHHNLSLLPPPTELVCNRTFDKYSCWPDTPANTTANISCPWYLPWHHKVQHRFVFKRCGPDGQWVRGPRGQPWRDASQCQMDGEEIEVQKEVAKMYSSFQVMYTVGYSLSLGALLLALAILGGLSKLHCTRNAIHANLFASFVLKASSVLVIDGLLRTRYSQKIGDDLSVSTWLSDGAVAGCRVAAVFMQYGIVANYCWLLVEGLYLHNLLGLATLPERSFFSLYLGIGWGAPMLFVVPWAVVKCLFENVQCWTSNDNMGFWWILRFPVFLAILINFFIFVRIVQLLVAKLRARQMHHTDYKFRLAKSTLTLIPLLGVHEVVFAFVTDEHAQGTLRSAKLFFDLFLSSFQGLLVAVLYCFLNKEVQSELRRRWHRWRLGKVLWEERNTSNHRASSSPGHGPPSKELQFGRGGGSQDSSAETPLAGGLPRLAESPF
Procedure: The cAMP protocol was as follows.
(§1) Peptides were dissolved in 100% DMSO and serially diluted to generate 11 point titrations. The peptide solutions were then transferred into 384-well assay plates (150 nL/well). Assay ready frozen cells expressing human GLP-1R or human GCGR were suspended in growth media consisting of DMEM/F12 medium (GIBCO), 10% FBS (GIBCO), lx P/S (GIBCO), 800 μg/mL Geneticin (GIBCO), and 300 μg/mL Hygromycin (Invitrogen). Cells were then diluted in assay buffer consisting of PBS (GIBCO), 7.5% BSA (Perkin Elmer), 100 μM RO 20-1724 (Sigma), and 20% human serum (MP Biomedical). The cell suspensions (15 μL) were then added to the assay plates containing the peptide solutions (30,000 cells/well for human GCGR; 20,000 cells/well for GLP1R). The cells were incubated for 1 hour at room temperature in the dark. Production of cAMP was determined using HitHunter™ cAMPXS kits (DiscoverX). ED buffer (20 μL) was then added to each well and the plates were incubated for 1 hour at room temperature in the dark. Subsequently, EA buffer (20 μL) was added to each well, and the plates were incubated for 1-18 hours at room temperature in the dark. Luminescence was measured using an EnVision Multilabel plate reader (Perkin Elmer). EC50 values were calculated using ADA data analyzer software.

[1] = tested on: diet-induced obese (DIO) mice (strain C57Bl6/NTac); test: Cumulative body weight change (grams) in DIO mice, Example 18; format: in vivo; details: 9 nmol/kg daily, day 9
Procedure: Mice were administered a vehicle control or a dose of a peptide daily for nine days. […] The peptide of SEQ ID NO: 9 was administered at doses of 9 and 25 nmol/kg. Cumulative body weight change (grams) was measured each day of the study except on day 3. Results are shown in FIG. 1 and are expressed as mean±SEM.

[2] = tested on: DIO mice (strain C57Bl6/NTac); test: Body weight change (%) relative to vehicle in DIO mice, second study, Example 19; format: in vivo; details: eight days
Procedure: In addition, the peptide of SEQ ID NO: 8 was administered at 15 nmol/kg, while the peptide of SEQ ID NOs: 10 and 11 were administered at 3 nmol/kg. Body weight was measured daily for eight days and body weight change is expressed as percent relative to vehicle (FIG. 2).

[3] = tested on: DIO mice (strain C57Bl6/NTac); test: Ambient glucose levels in DIO mice, Example 21; format: in vivo; details: 9 nmol/kg
Procedure: In addition to cumulative body weight change, ambient glucose levels of the DIO mice (strain C57Bl6/NTac) were measured periodically throughout the study.

human GLP-1R = target: T2, human GLP-1R (Homo sapiens, UniProt P43220); test: cAMP protocol, cells expressing human GLP-1R; format: cell-based; details: cAMP production, 20% human serum in assay buffer; read-out: GLPR1 EC50 (nM) human
T2 construct: expressed in transfected cells; grown under Geneticin and Hygromycin selection
T2 sequence (P43220 24-463): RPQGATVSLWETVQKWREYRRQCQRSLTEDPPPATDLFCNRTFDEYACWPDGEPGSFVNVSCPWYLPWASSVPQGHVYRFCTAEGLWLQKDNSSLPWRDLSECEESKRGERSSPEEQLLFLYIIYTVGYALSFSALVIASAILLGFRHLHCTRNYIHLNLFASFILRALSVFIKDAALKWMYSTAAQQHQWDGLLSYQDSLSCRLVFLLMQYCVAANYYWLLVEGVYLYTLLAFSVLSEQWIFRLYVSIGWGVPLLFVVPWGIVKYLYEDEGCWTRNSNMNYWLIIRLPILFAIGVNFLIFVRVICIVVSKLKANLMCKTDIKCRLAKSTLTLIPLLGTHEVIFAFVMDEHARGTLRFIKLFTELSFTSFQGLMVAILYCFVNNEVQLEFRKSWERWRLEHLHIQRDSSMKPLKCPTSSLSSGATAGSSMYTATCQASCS
Procedure: The cAMP protocol was as follows.
as §1

human glucagon receptor = human glucagon receptor (human, UniProt P47871 26-477); test: cell-based or functional assay
human glucagon receptor, sequence (P47871 26-477): as the sequence (P47871 26-477) above

human GLP-1 receptor = human GLP-1 receptor (human, UniProt P43220 24-463); test: cell-based or functional assay

Molecule | hGCGR/hGLP1R (hTone) (human GCGR) | weight loss [1] | weight loss, percent relative to vehicle ([2]; 9 nmol/kg daily) | GCGR EC50 (nM) human; cAMP production (HitHunter cAMPXS), 20% human serum (human glucagon receptor) | hGCGR/hGLP1R (hTone): ratio of cAMP EC50 at human GCGR to cAMP EC50 at human GLP1R (human glucagon receptor) | GLPR1 EC50 (nM) human; cAMP production (HitHunter cAMPXS), 20% human serum (human GLP-1 receptor) | further results
CCCCCCCCCCCCCCCC(=O)N[C@@H](CCC(=O)NCCCC[C@H](NC(=O)[C@H](CC(=O)O)NC(=O)[C@H](CO)NC(=O)[C@@H](NC(=O)[C@H](Cc1ccccc1)NC(=O)[C@@H](NC(=O)CNC(=O)[C@H](CCC(N)=O)NC(=O)[C@@H](CO)NC(=O)[C@@H](N)Cc1c[nH]cn1)[C@@H](C)O)[C@@H](C)O)C(=O)N[C@@H](CO)C(=O)N[C@@H](CCCCN)C(=O)N[C@@H](Cc1ccc(O)cc1)C(=O)N[C@@H](CC(C)C)C(=O)N[C@@H](CC(=O)O)C(=O)N[C@@H](C)C(=O)N[C@@H](CCCNC(=N)N)C(=O)N[C@@H](C)C(=O)N[C@@H](C)C(=O)N[C@@H](CCC(N)=O)C(=O)N[C@@H](CC(=O)O)C(=O)N[C@@H](Cc1ccccc1)C(=O)N[C@H](C(=O)N[C@@H](CCC(N)=O)C(=O)N[C@@H](Cc1c[nH]c2ccccc12)C(=O)N[C@@H](CC(C)C)C(=O)N[C@@H](CC(C)C)C(=O)N[C@@H](CC(=O)O)C(=O)N[C@H](C(N)=O)[C@@H](C)O)C(C)C)C(=O)O [SEQ ID NO: 6] | 0.88 | 10.5 grams | approximately 20% | – | – | – | decrease in ambient glucose compared to vehicle ([3]; day 7 of dosing): -60 mg/dL
CCCCCCCCCCCCCCCC(=O)N[C@@H](CCC(=O)N[C@@H](CCC(=O)NCCCC[C@H](NC(=O)[C@H](CC(=O)O)NC(=O)[C@H](CO)NC(=O)[C@@H](NC(=O)[C@H](Cc1ccccc1)NC(=O)[C@@H](NC(=O)CNC(=O)[C@H](CCC(N)=O)NC(=O)[C@@H](CO)NC(=O)[C@@H](N)Cc1c[nH]cn1)[C@@H](C)O)[C@@H](C)O)C(=O)N[C@@H](CO)C(=O)N[C@@H](CCCCN)C(=O)N[C@@H](Cc1ccc(O)cc1)C(=O)N[C@@H](CC(C)C)C(=O)N[C@@H](CC(=O)O)C(=O)N[C@H](C(=O)N[C@@H](CCCNC(=N)N)C(=O)N[C@@H](C)C(=O)N[C@@H](C)C(=O)N[C@@H](CCC(N)=O)C(=O)N[C@@H](CC(=O)O)C(=O)N[C@@H](Cc1ccccc1)C(=O)N[C@H](C(=O)N[C@@H](CCC(N)=O)C(=O)N[C@@H](Cc1c[nH]c2ccccc12)C(=O)N[C@@H](CC(C)C)C(=O)N[C@@H](CC(C)C)C(=O)N[C@@H](CC(=O)O)C(=O)N[C@H](C(N)=O)[C@@H](C)O)C(C)C)C(C)C)C(=O)O)C(=O)O [SEQ ID NO: 8] | 0.60 | 8 grams | approximately 17% | – | – | – | weight loss, percent relative to vehicle ([2]; 15 nmol/kg daily): approximately 25%; decrease in ambient glucose compared to vehicle ([3]; day 9): -72 mg/dL
CCCCCCCCCCCCCCCC(=O)N[C@@H](CCC(=O)N[C@@H](CCC(=O)NCCCC[C@H](NC(=O)[C@H](CC(=O)O)NC(=O)[C@H](CO)NC(=O)[C@@H](NC(=O)[C@H](Cc1ccccc1)NC(=O)[C@@H](NC(=O)CNC(=O)[C@H](CCC(N)=O)NC(=O)[C@@H](CO)NC(=O)[C@@H](N)Cc1c[nH]cn1)[C@@H](C)O)[C@@H](C)O)C(=O)N[C@@H](CO)C(=O)N[C@@H](CCCCN)C(=O)N[C@@H](Cc1ccc(O)cc1)C(=O)N[C@@H](CC(C)C)C(=O)N[C@@H](CC(=O)O)C(=O)N[C@@H](CCC(=O)O)C(=O)N[C@@H](CCCNC(=N)N)C(=O)N[C@@H](C)C(=O)N[C@@H](C)C(=O)N[C@@H](CCC(N)=O)C(=O)N[C@@H](CC(=O)O)C(=O)N[C@@H](Cc1ccccc1)C(=O)N[C@H](C(=O)N[C@@H](CCC(N)=O)C(=O)N[C@@H](Cc1c[nH]c2ccccc12)C(=O)N[C@@H](CC(C)C)C(=O)N[C@@H](CCS(C)(=O)=O)C(=O)N[C@@H](CC(=O)O)C(=O)N[C@H](C(N)=O)[C@@H](C)O)C(C)C)C(=O)O)C(=O)O [SEQ ID NO: 15] | 1.10 | – | – | – | – | – | EC50 (human GCGR; cAMP production, 20% human serum in assay buffer): 0.02 nM; EC50 (human GLP-1R): 0.02 nM
B1 | – | – | – | 0.06 nM | 1.25 ratio | 0.05 nM | –
B2 | – | – | – | 0.08 nM | 0.6 ratio | 0.13 nM | –
